Test results reported in ChEMBL document CHEMBL4425170, “Novel Series of Potent Glucokinase Activators Leading to the Discovery of AM-2394” (ACS Med Chem Lett, 2016).
≈ marks a conversion by molar mass, not a printed value. Values belong to the molecule of their own block, whether it stands above or below them.

Experiments:
[1] = physchem; details: SIF, pH 6.8
[2] = in vivo; details: mouse, po, 5 mg/kg
[3] = Cmax in mouse at 5 mg/kg, po; type: ADME, organism-based; set-up: dose 5 mg/kg, route oral; details: in vivo
[4] = Cmax in rat at 2 mg/kg, po; type: ADME, organism-based; set-up: dose 2 mg/kg, route oral; details: in vivo
[5] = Cmax in cynomolgus monkey at 2 mg/kg, po; type: ADME, organism-based, Macaca fascicularis; set-up: dose 2 mg/kg, route oral; details: in vivo
[6] = Cmax in dog at 2 mg/kg, po; type: ADME, organism-based, Canis lupus familiaris; set-up: dose 2 mg/kg, route oral; details: in vivo
[7] = Tmax in mouse at 5 mg/kg, po or 1 mg/kg, iv; type: ADME, organism-based; details: in vivo
[8] = Tmax in rat at 2 mg/kg, po or 0.5 mg/kg, iv; type: ADME, organism-based; details: in vivo
[9] = Tmax in cynomolgus monkey at 2 mg/kg, po or 0.5 mg/kg, iv; type: ADME, organism-based, Macaca fascicularis; details: in vivo
[10] = Tmax in dog at 2 mg/kg, po or 0.5 mg/kg, iv; type: ADME, organism-based, Canis lupus familiaris; details: in vivo
[11] = Clearance in mouse at 5 mg/kg, po or 1 mg/kg, iv; type: ADME, organism-based; details: in vivo
[12] = Clearance in rat at 2 mg/kg, po or 0.5 mg/kg, iv; type: ADME, organism-based; details: in vivo
[13] = Clearance in cynomolgus monkey at 2 mg/kg, po or 0.5 mg/kg, iv; type: ADME, organism-based, Macaca fascicularis; details: in vivo
[14] = Clearance in dog at 2 mg/kg, po or 0.5 mg/kg, iv; type: ADME, organism-based, Canis lupus familiaris; details: in vivo
[15] = Volume of distribution at steady state in mouse at 5 mg/kg, po or 1 mg/kg, iv; type: ADME, organism-based; details: in vivo, read-out: Vdss
[16] = Volume of distribution at steady state in rat at 2 mg/kg, po or 0.5 mg/kg, iv; type: ADME, organism-based; details: in vivo, read-out: Vdss
[17] = Volume of distribution at steady state in cynomolgus monkey at 2 mg/kg, po or 0.5 mg/kg, iv; type: ADME, organism-based, Macaca fascicularis; details: in vivo, read-out: Vdss
[18] = Volume of distribution at steady state in dog at 2 mg/kg, po or 0.5 mg/kg, iv; type: ADME, organism-based, Canis lupus familiaris; details: in vivo, read-out: Vdss
[19] = Half life in mouse at 1 mg/kg, iv; type: ADME, organism-based; details: in vivo
[20] = Half life in rat at 0.5 mg/kg, iv; type: ADME, organism-based; details: in vivo
[21] = Half life in cynomolgus monkey at 0.5 mg/kg, iv; type: ADME, organism-based, Macaca fascicularis; details: in vivo
[22] = Half life in dog at 0.5 mg/kg, iv; type: ADME, organism-based, Canis lupus familiaris; details: in vivo
[23] = Oral bioavailability in cynomolgus monkey at 2 mg/kg; type: ADME, organism-based, Macaca fascicularis; details: in vivo
[24] = Oral bioavailability in dog at 2 mg/kg; type: ADME, organism-based, Canis lupus familiaris; details: in vivo
[25] = Terminal plasma concentration in ob/ob mouse at 3 mg/kg, po administered 30 mins prior to testing by oral glucose tolerance test; type: ADME, organism-based; details: read-out: Cp(T)
[26] = Terminal plasma concentration in ob/ob mouse at 10 mg/kg, po administered 30 mins prior to testing by oral glucose tolerance test; type: ADME, organism-based; details: read-out: Cp(T)
[27] = Terminal plasma concentration in ob/ob mouse at 30 mg/kg, po administered 30 mins prior to testing by oral glucose tolerance test; type: ADME, organism-based; details: read-out: Cp(T)

solubility [1]: 226 µM (≈ 92.5 µg/mL)
Compound: CNC(=O)Nc1cc(Oc2cncc(C)c2)c(-c2ccc(OC[C@@H](C)O)nc2)cn1

Compound: CNC(=O)Nc1cc(Oc2cncc(C)c2)c(-c2ccc(OCCO)nc2)cn1
bioavailability [2]: 6% | solubility [1]: < 1 µM

solubility [1]: 176 µM (≈ 72.1 µg/mL)
Compound: CNC(=O)Nc1cc(Oc2cncc(C)c2)c(-c2ccc(OC[C@H](C)O)nc2)cn1

Cmax [3]: 350 nM | Cmax [4]: 490 nM | Cmax [5]: 1150 nM | Cmax [6]: 3.52 µM | Tmax [7]: 19.8 min | Tmax [8]: 49.8 min | Tmax [9]: 1.67 h | Tmax [10]: 1.33 h | clearance [11]: 6.17 mL/min/kg | clearance [12]: 27.3 mL/min/kg | clearance [13]: 10 mL/min/kg | clearance [14]: 4.17 mL/min/kg | Vd [15]: 0.59 L/kg | Vd [16]: 2.18 L/kg | Vd [17]: 2.29 L/kg | Vd [18]: 1.49 L/kg | half-life [19]: 120 min | half-life [20]: 84 min | half-life [21]: 402 min | half-life [22]: 390 min | bioavailability [23]: 70% | bioavailability [24]: 99% | bioavailability [2]: 25% | solubility [1]: 46 µM (≈ 19.5 µg/mL)
Compound: CNC(=O)Nc1cc(Oc2cncc(C)c2)c(-c2ccc(OCC(C)(C)O)nc2)cn1
concentration at 0.5 h [25]: 1200 nM | concentration at 0.5 h [26]: 3.6 µM | concentration at 0.5 h [27]: 38 µM
